Data set [1] in a line: Effect of varying oxygen concentrations on efficacy of 1000 ppm NO exposure. The class given is cell-based. An excerpt:
Prior art devices for delivering NO to treat wounds have required a closed environment. […] The oxygen may be environmental oxygen or may be delivered via an oxygen generating component within the dressing or apparatus.
The effect of various oxygen concentration levels on the efficacy of 1000 ppm treatment of NO was studied.

For data set [2] the following is noted: humans, delivery to an infection site; cited from earlier work.
The next data set relates to bacterial burden. Conditions: "It has been shown", no test described; cited from earlier work.

Turning to `[N]=O` [NO, Nitric oxide], the CFU/mL in data set [1] (0% Oxygen, 2 hour) is recorded as 100,000 CFU/mL; in data set [1] (0% Oxygen, 4 hour) it was 100,000 CFU/mL; in data set [1] (14.5% Oxygen, 2 hour), 2730 CFU/mL; in data set [1] (14.5% Oxygen, 3 hour), 78 CFU/mL; in data set [1] (14.5% Oxygen, 4 hour), 0 CFU/mL; in data set [1] (21% Oxygen, 1 hour), 100,000 CFU/mL. In addition, the CFU/mL in data set [1] (21% Oxygen, 2 hour) is given as 10,000 CFU/mL; in data set [1] (21% Oxygen, 3 hour), 0 CFU/mL; in data set [1] (21% Oxygen, 4 hour) it was 0 CFU/mL. Besides, the side-effects entry in data set [2] is “does not have significant side-effects”. The “reduction of the bacterial burden” value in the data set with bacterial burden is listed as 5-6 log10 cfu/mL.

These data come from patent US20150297782A1, “NITRIC OXIDE-RELEASING DRESSINGS” (priority 2008, published 2015).
